# According to patent publication US20050019341A1, “Tumor antigen” (priority 2001, published 2005):
# How the values were obtained:
# [1] = system: PBMC of multiple sclerosis patients; T2 cells pulsed with corresponding peptide; assay: Peptide recognition in PBMC of multiple sclerosis patients (Example 6): IFN-γ production against peptide-pulsed T2 cells; format: cell-based, human; settings: MS Patient Case 7
# Experimental: (§1) The PBMC were prepared by methods of the art from the blood of three primary brain tumor patients and one metastatic brain tumor patient. The PBMC obtained were stimulated by incubation with each peptide in the same way as in Example 4, and were cultured by the same method as in Example 3 using T2 cells that were pulsed with each corresponding peptide or KNS60 tumor cells as target cells, followed by measuring the quantity of IFN-γ produced. When T2 cells that were pulsed with the peptides were used as target cells, the PBMC was paired with the T2 cells in such a way that the peptide used to stimulate PBMC and the peptide pulsed to T2 cells were the same.
# (§2) Among the 13 types of peptide obtained in Example 3, three peptides, P101 (SEQ ID NO: 1), P102 (SEQ ID NO: 2), and P103 (SEQ ID NO: 3), which were derived from clone 8B6, as well as three peptides, P104 (SEQ ID NO: 4), P105 (SEQ ID NO: 5), and P106 (SEQ ID NO: 6), which were derived from clone 2G2, were examined for their ability to induce CTL from PBMC obtained from multiple sclerosis patients having HLA-A2 as the HLA type and healthy subjects, in the same manner as in Example 5.
# immunoglobulin E (IgE) = assay: ELISA for peptide-specific IgE in serum; format: binding, human; settings: serum of MS patients
# Experimental: The presence of immunoglobulin E (IgE) and immunoglobulin G (IgG) that specifically recognize P102 (SEQ ID NO: 2), P103 (SEQ ID NO: 3), P104 (SEQ ID NO: 4), or P106 (SEQ ID NO: 6) in the serum of a multiple sclerosis patient, a brain tumor patient, and a healthy subject was measured by the enzyme-linked immunosorbent assay (ELISA).
# Each aforementioned peptide (20 μg/well) was immobilized in a 96-well Nunc Covalink flat-bottomed plate (Fisher Scientific), using disuccinimidyl suberate (PIERCE), following the product instructions. This plate was blocked with Block Ace (Yukijirushi) and washed with 0.05% Tween20-PBS; a serum or blood plasma sample was diluted with 0.05% Tween20-Block Ace and added to the plate at 100 μl/well. After incubation for 2 hours at 37° C., the plate was washed with 0.05% Tween20-PBS and further incubated for 2 hours at 37° C. with rabbit anti-human IgE antibody (E chain-specific), anti-human IgG antibody (y chain-specific) (DAKO), or anti-human IgG subclass-specific antibody (Zymed Laboratories), each of which were diluted to 1:1000. […] Thereafter, the reaction was stopped by adding 1 M phosphoric acid, and the optical density (OD) at 450 nm was measured. In so doing, peptides derived from EBV, HIV, SART2 (JP-11-318455), or SART3 (Cancer Research, 1999, Volume 59, pp. […]) were used as controls and measured similarly. […]
# [2] = system: OK-CTL (HLA-A2-restricted cytotoxic T-lymphocyte strain); assay: CTL activation test: T2 cells pulsed with peptide co-cultured with OK-CTL, IFN-γ by ELISA; format: cell-based, human; settings: E/T ratio=10, 18 hours, dose-dependent
# Experimental: The T2 cells, pulsed with each peptide in this way, were used as the target cells (T). In addition, the OK-CTL obtained in Example 1 were used as effector cells (E). Target cells amounting to 1×10^4 and effector cells amounting to 1×10^5 were mixed (E/T ratio=10) and incubated for 18 hours. After incubation, 100 μl of supernatant was collected, and IFN-γ was measured by ELISA. The quantity of IFN-γ produced by CTL against T2 cells that were not pulsed with a peptide was taken as the background and subtracted from each measurement value.
# [3] = system: PBMC of HLA-A2+ brain tumor patients; targets T2 cells pulsed with corresponding peptide and/or HLA-A2+ tumor cells; assay: Induction of CTL by peptides from PBMC of brain tumor patients (Example 5): IFN-γ production; format: cell-based, human; settings: Patient Case 4 (brain tumor)
# Experimental: as §1
# HLA-A2+ tumor cells = assay: Peptide-stimulated PBMC of multiple sclerosis patients: recognition of tumor cells (IFN-γ); format: cell-based, human; settings: PBMC from multiple sclerosis patients
# Experimental: as §1, §2
sequence,measurement,setting,value
"IMSRDLVPRI (Designed peptide recognized by HLA-A2-restricted cytotoxic T lymphocytes) [P102, peptide derived from clone 8B6]",production of IFN-γ from PBMC,[1],enhanced production of IFN-γ
same,IgE that specifically recognizes the peptide,immunoglobulin E (IgE),is present
same,recognition by OK-CTL / production of IFN-γ from OK-CTL,[2],enhanced production of IFN-γ from OK-CTL
same,production of IFN-γ from PBMC,[3],enhanced production of IFN-γ
same,recognition of tumor cells by peptide-stimulated PBMC,HLA-A2+ tumor cells,did not recognize the tumor cells
